The values below come from paper PMC4393269, “Carvacrol Codrugs: A New Approach in the Antimicrobial Plan” (PLoS ONE, 2015).

Broadly, the solubility is the concentration that dissolves in the medium under given conditions. What is called logP is a log measure of how a compound divides between an organic and an aqueous phase. A low value points to lower lipophilicity. The MIC is the smallest concentration in the dilution series that meets the test's criterion for growth inhibition. A word on the MBC: it is the smallest concentration meeting the test's criterion for killing. The term MFC denotes the lowest tested concentration that kills the fungus rather than only halting it.

≈ marks a conversion by molar mass, not a printed value. Where two headings read alike, the source gives them in different places.

A short description of data set [1]: Water solubility (HPLC). The format is physicochemical. Conditions: thermodynamic from solid, room temperature, mean of three experiments (SD). How it is done:
The HPLC system consisted of a Waters 600 HPLC pump (Waters Corporation, Milford, MA, USA), equipped with a Waters 2996 photodiode array detector. The column was a Kinetex RP-C8 column (3.0 x 150 mm, 5 μm). The mobile phase consisted of 0.1% TFA in acetonitrile/0.1% TFA in 95% H2O and 5% acetonitrile 50:50, under isocratic conditions at a flow rate of 1 mL/min. The UV detector was set at a length of 220 nm. […] Then the mixture was filtered using a Millipore filter (0.45 μm) and the concentration of the compound in its saturated solution was determined by HPLC analysis.

Data set [2] is described as follows: Kinetics of enzymatic hydrolysis in plasma. The format is in vitro ADME. The following applies: 37°C; for half-life at 40 µg/mL: pH 7.4, read-out: t½ (converted). As to the method:
(§1) The HPLC system consisted of a Waters 600 HPLC pump (Waters Corporation, Milford, MA, USA), equipped with a Waters 2996 photodiode array detector. The column was a Kinetex RP-C8 column (3.0 x 150 mm, 5 μm). The mobile phase consisted of 0.1% TFA in acetonitrile/0.1% TFA in 95% H2O and 5% acetonitrile 50:50, under isocratic conditions at a flow rate of 1 mL/min. The UV detector was set at a length of 220 nm.
The enzymatic hydrolysis was evaluated in human and rat plasma. […] A volume of 200 μL of this solution was added with pre-heated (37°C) plasma fractions (4 mL) previously diluted with 0.02 M phosphate buffer (pH 7.4) to give a final volume of 5 mL (80% plasma). Aliquots (100 μL) were taken at various times and deproteinized by mixing with 200 μL of 0.01 M HCl in methanol. After centrifugation for 5 min at 5000 × g, 10 μL of the supernatant layer were analysed by chromatography as described above. The amounts of remaining intact compound were plotted as a function of incubation time.

Data set [3] can be described thus: Lipophilicity LogP (experimental). The format is physicochemical. Conditions: mean of three experiments (SD). The source says: Table 3 Physicochemical properties of carvacrol codrug 4. | column: Lipophilicity / LogP ^a
In data set [4] the test system is E. coli ATCC 8739. Put plainly: Transmission electron microscopy. The format is cell-based. Conditions: 12.5 mg/mL for 3 h. An excerpt:
(§2) For transmission electron microscopy, microrganisms were fixed with 2.5% glutaraldehyde in 0.1 M cacodylate buffer, postfixed with 1% OsO4, dehydrated in graded ethanol and embedded in Epon 812. Ultrathin sections (60 to 80 nm) were then mounted on 200-mesh copper grids and stained with uranyl acetate and lead citrate for ultrastructural observation. Sections were photographed using a Philips 268 D electron microscope (FEI).

For data set [5], the system named is S. aureus ATCC 29213. Put plainly: Transmission electron microscopy. The format is cell-based. The following applies: 12.5 mg/mL for 3 h.
Text: as §2

Data set [6] deals with C. albicans ATCC 10231. Put plainly: Transmission electron microscopy. The format is cell-based. The following applies: 12.5 mg/mL for 3 h.
Text: as §2

In data set [7] the test system is S. epidermidis ATCC 35984. Put plainly: Broth microdilution MIC/MBC on planktonic cells. Conditions: Staphylococcus epidermidis, ATCC35984. The format is cell-based. As to the method: (§3) Two Gram-positive (S. aureus ATCC 29213 and S. epidermidis ATCC 35984) and two Gram-negative (E. coli ATCC 8739 and P. aeruginosa ATCC 9027) strains, and one fungal strain (C. albicans ATCC 10231) were used for the detection of antibacterial activity of carvacrol, NAC, Ac-Cys(Allyl)-OH, and carvacrol codrugs 1–10. All tested compounds were dissolved in 20% DMSO to prepare the stock solution (100 mg/mL). The final concentration of DMSO in each well appeared to be not toxic for all studied microorganisms, as confirmed by the solvent control test included in the study.
(§4) The effects of carvacrol codrugs 1–10 and reference compounds on planktonic cells were evaluated by Minimum Inhibitory Concentration (MIC) and Minimum Bactericidal Concentration (MBC) determination using the broth microdilution method according to EUCAST guidelines. Bacterial suspensions, grown in Mueller–Hinton Broth (MHB) at logarithmic phase, were incubated on microtiter plates at a concentration of 5 x 10^5 CFU/mL, with several dilutions (0.07–40 mg/mL) for 24 h at 37°C. The MIC was defined as the lowest concentration of substances giving a complete inhibition of visible growth in comparison with a control well, and the MBC was determined as the lowest concentration at which no bacterial growth occurred on Mueller–Hinton Agar plates.
(§5) Data were obtained from at least three independent experiments performed in duplicate. The susceptibility of the bacterial strains against ciprofloxacin was used as an internal standard during MIC determinations.
A general note: Broth dilution looks for growth in wells or tubes with falling amounts of substance.

In data set [8] the test system is E. coli ATCC 8739. Put plainly: Broth microdilution MIC/MBC on planktonic cells. The format is cell-based. Conditions: Escherichia coli, ATCC8739. As to the method:
as §3, §4, §5

The subject of data set [9] is P. aeruginosa ATCC 9027. Put plainly: Broth microdilution MIC/MBC on planktonic cells. The following applies: Pseudomonas aeruginosa, ATCC9027. The format is cell-based. How it is done: as §3, §4, §5
In data set [10] the test system is S. aureus ATCC 29213. Put plainly: Broth microdilution MIC/MBC on planktonic cells. The format is cell-based. Conditions: Staphylococcus aureus, ATCC29213. How it is done:
as §3, §4, §5

The subject of data set [11] is C. albicans ATCC 10231. Put plainly: Broth microdilution MIC/MFC. The format is cell-based. The following applies: Candida albicans, ATCC10231. As to the method:
as §3
The MIC detection of C. albicans ATCC 10231 was performed using the broth microdilution method according to EUCAST guidelines in RPMI 1640 plus 2% glucose with a final inoculum of 1–5 x 10^5 CFU/mL for 24–48 h at 37°C. The Minimum Fungicidal Concentration (MFC) was determined as the lowest concentration of substances at which no fungal growth occurred on Sabouraud agar plates.
as §5

Data set [12] is described as follows: Kinetics of chemical hydrolysis in buffers. The format is physicochemical. The following applies: for half-life at 9.1 µM: read-out: t½ (converted). As to the method: as §1
[…] Reactions were initiated by adding 1 mL of 10^-4 M stock solution (in acetonitrile) of the compound to 10 mL of the appropriate aqueous buffer solution, containing 20% acetonitrile. At appropriate time intervals, samples of 20 μL were withdrawn and analyzed by HPLC. Pseudo-first-order rate constants (kobs) for the hydrolysis of the compounds were then calculated from the slopes of the linear plots of log (% residual compound) against time. The experiments were run in triplicate and the mean values of the rate constants were calculated.

The compound `C=CCSC[C@H](NC(C)=O)C(=O)Oc1cc(C(C)C)ccc1C` [codrug 4, N-Ac-Cys(Allyl)-CAR] had a solubility at 15 min in data set [1] of 150 µg/mL (≈ 0.447 mM). Moreover, the kobs in data set [2] (80% human plasma) is 1.38 (± 0.03) h^-1; in data set [2] (80% rat plasma) it was 1.38 (± 0.05) h^-1; in [12] (pH 1.3, 37°C), 0.009 (± 0.001) h^-1; in data set [12] (pH 7.4, 37°C) it was 0.030 (± 0.001) h^-1. For the same compound, the half-life at 40 µg/mL in data set [2] (80% human plasma) and in [2] (80% rat plasma) was 0.5 h throughout. This compound also showed a logP in [3] of 1.21. The “cell morphology by TEM” value in data set [4] was “alteration of outer membrane”; in data set [5], “induced abnormal septum formation with irregular features”; in [6], “disintegration of the membranes”. Also, the MIC in data set [7] (S. epidermidis ATCC 35984, 24 h at 37°C, read-out: MIC) was 2500 µg/mL (≈ 7.45 mM); in data set [8] (E. coli ATCC 8739, 24 h at 37°C, read-out: MIC) it was 2500 µg/mL (≈ 7.45 mM); in data set [9] (P. aeruginosa ATCC 9027, 24 h at 37°C, read-out: MIC) it was 5000 µg/mL (≈ 14.9 mM); in [10] (S. aureus ATCC 29213, 24 h at 37°C, read-out: MIC) it was 2500 µg/mL (≈ 7.45 mM); in data set [11] (C. albicans ATCC 10231, 24–48 h at 37°C, read-out: MIC), 1250 µg/mL (≈ 3.73 mM). Besides, the minimal bactericidal concentration (MBC) was found to be 2500 µg/mL (≈ 7.45 mM) in data set [7] (S. epidermidis ATCC 35984, read-out: MBC); 2500 µg/mL (≈ 7.45 mM) in data set [8] (E. coli ATCC 8739, read-out: MBC); 10000 µg/mL (≈ 29.8 mM) in [9] (P. aeruginosa ATCC 9027, read-out: MBC); 2500 µg/mL (≈ 7.45 mM) in [10] (S. aureus ATCC 29213, read-out: MBC). Further, the MFC in data set [11] (C. albicans ATCC 10231, read-out: MFC) was found to be 1250 µg/mL (≈ 3.73 mM). The half-life at 9.1 µM in data set [12] (aqueous buffer pH 5.0, pH 5.0, 37°C) was 62.1 h; in data set [12] (hydrochloric acid buffer pH 1.3 (non-enzymatic SGF), pH 1.3, 37°C) it was 75.4 h; in data set [12] (phosphate buffer pH 7.4 (non-enzymatic SIF), pH 7.4, 37°C) it was 22.9 h.
